Here are results for 27 compounds from article PMC4896931, “The discovery of 2-substituted phenol quinazolines as potent RET kinase inhibitors with improved KDR selectivity” (European Journal of Medicinal Chemistry, 2016).

Each structure is given as a SMILES string. Where a name gives a salt, the structure may show the parent alone.

The nature of data set [1]: Human hepatocyte stability. Particulars: human hepatocytes. The data set is classed as in vitro ADME.
The next data set is described as follows: in vitro. The following applies: mouse.
Another data set deals with KDR (Homo sapiens, UniProt P35968).
Sequence of KDR (P35968 20-1356): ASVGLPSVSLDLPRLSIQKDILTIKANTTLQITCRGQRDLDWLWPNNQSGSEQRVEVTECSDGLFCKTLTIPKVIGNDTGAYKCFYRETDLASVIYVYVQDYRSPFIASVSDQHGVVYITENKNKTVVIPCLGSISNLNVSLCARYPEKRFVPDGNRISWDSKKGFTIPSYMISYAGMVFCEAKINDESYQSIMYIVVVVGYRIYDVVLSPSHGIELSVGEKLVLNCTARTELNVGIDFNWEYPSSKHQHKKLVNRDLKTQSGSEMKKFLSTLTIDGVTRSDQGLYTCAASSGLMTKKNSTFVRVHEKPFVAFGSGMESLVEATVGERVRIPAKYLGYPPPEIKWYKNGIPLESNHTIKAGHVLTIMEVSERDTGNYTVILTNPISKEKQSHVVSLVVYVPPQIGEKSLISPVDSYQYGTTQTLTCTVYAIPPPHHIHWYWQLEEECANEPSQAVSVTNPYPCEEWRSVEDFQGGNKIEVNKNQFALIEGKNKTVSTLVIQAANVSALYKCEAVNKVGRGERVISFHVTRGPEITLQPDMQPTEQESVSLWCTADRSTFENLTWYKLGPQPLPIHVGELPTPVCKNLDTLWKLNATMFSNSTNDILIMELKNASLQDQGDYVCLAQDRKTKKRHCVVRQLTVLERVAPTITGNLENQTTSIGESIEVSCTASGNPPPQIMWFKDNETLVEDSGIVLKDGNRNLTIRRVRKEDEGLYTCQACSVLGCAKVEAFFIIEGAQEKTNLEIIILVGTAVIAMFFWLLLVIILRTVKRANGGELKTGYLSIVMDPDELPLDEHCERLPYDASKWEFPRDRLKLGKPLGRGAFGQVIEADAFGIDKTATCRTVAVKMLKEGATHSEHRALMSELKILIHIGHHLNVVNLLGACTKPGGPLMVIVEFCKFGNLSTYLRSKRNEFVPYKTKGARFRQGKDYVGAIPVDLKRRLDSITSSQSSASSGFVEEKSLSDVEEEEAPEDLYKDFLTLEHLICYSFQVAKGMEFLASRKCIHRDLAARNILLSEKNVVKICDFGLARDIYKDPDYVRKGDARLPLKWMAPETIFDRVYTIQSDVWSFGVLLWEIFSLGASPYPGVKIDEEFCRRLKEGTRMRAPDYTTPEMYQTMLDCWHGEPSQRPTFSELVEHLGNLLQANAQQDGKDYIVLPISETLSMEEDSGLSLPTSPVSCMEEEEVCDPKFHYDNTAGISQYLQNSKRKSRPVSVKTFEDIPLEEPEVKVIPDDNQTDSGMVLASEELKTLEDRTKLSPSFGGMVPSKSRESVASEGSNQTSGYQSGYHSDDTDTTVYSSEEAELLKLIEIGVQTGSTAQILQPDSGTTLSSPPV
The target of data set [2] is T1, BaF3 cells expressing KIF5B-RET (Homo sapiens, UniProt P07949+P33176).
T1 sequence (P33176+P07949 with tags, fused parts or gaps): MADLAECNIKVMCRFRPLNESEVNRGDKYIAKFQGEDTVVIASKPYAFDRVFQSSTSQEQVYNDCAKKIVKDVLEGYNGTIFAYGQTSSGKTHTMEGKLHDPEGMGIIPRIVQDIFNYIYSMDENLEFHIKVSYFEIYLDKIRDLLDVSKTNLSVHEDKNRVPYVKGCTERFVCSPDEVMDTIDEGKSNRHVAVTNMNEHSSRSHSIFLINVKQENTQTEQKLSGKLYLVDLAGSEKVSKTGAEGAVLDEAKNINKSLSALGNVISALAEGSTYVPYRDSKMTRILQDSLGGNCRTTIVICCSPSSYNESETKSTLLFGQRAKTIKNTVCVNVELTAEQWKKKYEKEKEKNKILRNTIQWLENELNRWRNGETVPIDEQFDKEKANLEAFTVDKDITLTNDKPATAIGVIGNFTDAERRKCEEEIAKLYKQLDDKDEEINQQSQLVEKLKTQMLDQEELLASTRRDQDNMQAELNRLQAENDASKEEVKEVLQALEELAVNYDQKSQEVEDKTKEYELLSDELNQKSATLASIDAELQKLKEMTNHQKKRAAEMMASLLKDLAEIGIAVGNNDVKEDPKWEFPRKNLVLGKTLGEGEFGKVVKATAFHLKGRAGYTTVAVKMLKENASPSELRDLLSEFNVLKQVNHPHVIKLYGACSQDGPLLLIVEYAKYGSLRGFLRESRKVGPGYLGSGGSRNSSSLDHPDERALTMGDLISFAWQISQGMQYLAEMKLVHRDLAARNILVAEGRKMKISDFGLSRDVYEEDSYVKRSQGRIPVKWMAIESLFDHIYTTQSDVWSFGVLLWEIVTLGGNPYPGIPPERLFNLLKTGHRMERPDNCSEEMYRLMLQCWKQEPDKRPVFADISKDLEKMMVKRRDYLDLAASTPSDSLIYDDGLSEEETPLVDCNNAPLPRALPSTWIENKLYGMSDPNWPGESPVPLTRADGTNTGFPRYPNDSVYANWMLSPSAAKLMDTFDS

The nature of another data set: Aqueous solubility. The following applies: aqueous medium (not further specified). The data set is classed as physicochemical.
Data set [3] is described as follows: Mouse hepatocyte stability. The data set is classed as in vitro ADME. Particulars: mouse hepatocytes.
A short description of the next data set: Caco-2 permeability. The data set is classed as in vitro ADME. Particulars: human; Caco-2 cells. (In general: Caco-2 monolayers are a common model of the intestinal barrier.)
Data set [4] in a line: Mouse pharmacokinetics (intravenous and oral). The data set is classed as in vivo, male CD-1 mice. The protocol:
All studies were conducted after review by the Animal Welfare and Ethical Review Body at CRUK:MI and in accordance with the University of Manchester Policy on the use of animals in research. All work was carried out in compliance with the Animals (Scientific Procedures) Act 1986. Pharmacokinetics were studied in male CD-1 mice following single intravenous or oral administration. Blood samples were collected as dried blood spots and assayed following solvent extraction through a phospholipid removal plate followed by LC-MS/MS analysis. The resulting concentration-time data were analysed by non-compartmental methods (PK Solver, Excel Add-In).

The mark [5] stands for this setting: non-modified (wild-type, non RET-driven) BaF3 cells.

In data set [1], `COc1cc2ncnc(Nc3cccc(O)c3O)c2cc1OC` [Compound 10, 3-((6,7-Dimethoxyquinazolin-4-yl)amino)benzene-1,2-diol hydrochloride] showed a hepatocyte CLint of 95.5 µL/min/1e6 cells. Moreover, the IC50 at 48 h in “in vitro” (setting [5]) was > 10000 nM.

Consider `COc1cc2ncnc(Nc3ccc(Cl)c(O)c3)c2cc1OC` [Compound 21], for which the values for the IC50 (on KDR; in data set [2]) were 58 nM and 940 nM, respectively.

`COc1cc2ncnc(Nc3ccc(O)cc3)c2cc1OC` [Compound 7] registered an IC50 against KDR of 2800 nM.

Take `COc1cc2ncnc(Nc3cc(O)c(F)cc3F)c2cc1OC` [Compound 28]: the results for the IC50 (on KDR; in data set [2]) were 9.5 nM and 53 nM, respectively.

Take `COc1cc2ncnc(Nc3cc(O)ccc3Cl)c2cc1OC` [Compound 26, 4-Chloro-3-((6,7-dimethoxyquinazolin-4-yl)amino)phenol]: the 50% inhibitory concentration (IC50) at KDR was 71 nM; in data set [2] it was 85 nM.

Regarding `COc1cc2ncnc(Nc3c(Cl)ccc(O)c3Cl)c2cc1OC` [Compound 39, 2,4-Dichloro-3-((6,7-dimethoxyquinazolin-4-yl)amino)phenol], half-maximal inhibition at KDR (IC50) required 1400 nM.

As for `COc1cc2ncnc(Nc3cccc(O)c3C#N)c2cc1OC` [Compound 18, 2-((6,7-Dimethoxyquinazolin-4-yl)amino)-6-hydroxybenzonitrile], the IC50 against KDR was > 10000 nM.

Turning to `COc1cc2ncnc(Oc3cccc(O)c3)c2cc1OC` [Compound 42, 3-((6,7-Dimethoxyquinazolin-4-yl)oxy)phenol], the IC50 came out at 150 nM at KDR and 620 nM in data set [2].

In the case of `COc1cc2ncnc(Nc3c(F)ccc(O)c3C)c2cc1OC` [Compound 36, 3-((6,7-Dimethoxyquinazolin-4-yl)amino)-4-fluoro-2-methylphenol hydrochloride], the solubility in the data set “Aqueous solubility” was > 100 µM. Besides, the intrinsic clearance (hepatocyte CLint) in data set [3] came to 38.1 µL/min/1e6 cells; in data set [1], 20.9 µL/min/1e6 cells. In “Caco-2 permeability”, this compound registered a Papp of 8.2 ×10⁻⁶ cm/s. In data set [4] (intravenous), the Total blood clearance is < 10 % LBF. The Oral half-life entry in data set [4] (oral) is recorded as “approximately 2 h”. Also, the bioavailability entry in data set [4] (oral) is “approximately 35%”.

In the case of `COc1cc2ncnc(Nc3c(F)ccc(O)c3F)c2cc1OC` [Compound 33, 3-((6,7-Dimethoxyquinazolin-4-yl)amino)-2,4-difluorophenol], the IC50 against KDR stood at 69 nM; in data set [2], 120 nM. In data set [1], this compound yielded an intrinsic metabolic clearance (hepatocyte CLint) of 68.9 µL/min/1e6 cells. Besides, the IC50 at 48 h in “in vitro” (setting [5]) is > 10000 nM.

For `COc1cc2ncnc(Nc3cc(O)c(C)cc3F)c2cc1OC` [Compound 30], the results for the IC50 (on KDR; in data set [2]) were 2.3 nM and 41 nM, respectively. Moreover, the hepatocyte CLint in data set [1] is 91.9 µL/min/1e6 cells. In “in vitro” (setting [5]), the concentration for half-maximal inhibition (IC50) at 48 h was > 1000 nM.

As for `COc1cc2ncnc(Nc3ccc(Br)cc3F)c2cc1OC` [Compound 4], the IC50 is 460 nM against KDR and 1700 nM in data set [2].

In data set [1], `COc1cc2ncnc(Nc3cccc(O)c3)c2cc1OC` [Compound 6] returned a hepatocyte CLint of 76.9 µL/min/1e6 cells. Also, in the data set “in vitro” (setting [5]), the IC50 at 48 h was > 10000 nM.

Turning to `COc1cc2ncnc(Nc3cccc(N)c3)c2cc1OC` [Compound 8], the IC50 against KDR stood at 7600 nM.

Take `COc1cc2ncnc(Nc3cccc(O)c3Br)c2cc1OC` [Compound 11, 2-Bromo-3-((6,7-dimethoxyquinazolin-4-yl)amino)phenol hydrochloride]: the hepatocyte CLint in data set [1] is 157 µL/min/1e6 cells. Further, the IC50 at 48 h in the data set “in vitro” (setting [5]) was > 10000 nM.

Turning to `COc1cc2ncnc(Nc3cccc(O)c3Cl)c2cc1OC` [Compound 12, 2-Chloro-3-((6,7-dimethoxyquinazolin-4-yl)amino)phenol hydrochloride], the hepatocyte CLint in data set [1] was 174 µL/min/1e6 cells. The 50% inhibitory concentration (IC50) at 48 h in the data set “in vitro” is > 10000 nM.

`COc1cc2ncnc(Nc3c(Cl)ccc(O)c3F)c2cc1OC` [Compound 34, 4-Chloro-3-((6,7-dimethoxyquinazolin-4-yl)amino)-2-fluorophenol] showed a hepatocyte CLint in data set [1] of 93.3 µL/min/1e6 cells. Also, in the data set “in vitro”, the IC50 at 48 h is > 10000 nM.

In the case of `COc1cc2ncnc(Nc3cccc(O)c3OC)c2cc1OC` [Compound 15, 3-((6,7-Dimethoxyquinazolin-4-yl)amino)-2-methoxyphenol], the IC50 against KDR was > 10000 nM.

At KDR, `COc1cc2ncnc(Nc3c(F)ccc(O)c3Cl)c2cc1OC` [Compound 40, 2-Chloro-3-((6,7-dimethoxyquinazolin-4-yl)amino)-4-fluorophenol] came in with an IC50 of 1100 nM. Besides, in data set [1], the hepatocyte CLint was determined as 66.7 µL/min/1e6 cells. The IC50 at 48 h in “in vitro” was > 10000 nM.

In turn, `COc1cc2ncnc(Nc3cccc(O)c3C)c2cc1OC` [Compound 13, 3-((6,7-Dimethoxyquinazolin-4-yl)amino)-2-methylphenol hydrochloride] displayed a hepatocyte CLint in data set [1] of 28.4 µL/min/1e6 cells. The IC50 at 48 h in the data set “in vitro” is > 10000 nM.

With `COc1cc2ncnc(Nc3cc(O)ccc3F)c2cc1OC` [Compound 25], the figures for the half-maximal inhibitory concentration (IC50) (at KDR; in data set [2]) were 20 nM and 53 nM, respectively.

Take `COc1cc2ncnc(Nc3cccc(O)c3C(F)(F)F)c2cc1OC` [Compound 17, 3-((6,7-Dimethoxyquinazolin-4-yl)amino)-2-(trifluoromethyl)phenol]: on KDR, the IC50 is > 10000 nM.

In data set [1], `COc1cc2ncnc(Nc3cc(F)cc(O)c3C)c2cc1OC` [Compound 35, 3-((6,7-Dimethoxyquinazolin-4-yl)amino)-5-fluoro-2-methylphenol hydrochloride] had a hepatocyte CLint of 54.8 µL/min/1e6 cells. For the same compound, in “in vitro” (setting [5]), the IC50 at 48 h is > 10000 nM.

On to `COc1cccc(Nc2ncnc3cc(OC)c(OC)cc23)c1` [Compound 9], for which the IC50 at KDR is 4800 nM.

For the compound `COc1cc2ncnc(Nc3c(Cl)ccc(O)c3C)c2cc1OC` [Compound 37, 4-Chloro-3-((6,7-dimethoxyquinazolin-4-yl)amino)-2-methylphenol], the figures for the IC50 (against KDR; in data set [2]) were > 10000 nM and 3600 nM, respectively.

As for `COc1cc2ncnc(Nc3ccc(C)c(O)c3)c2cc1OC` [Compound 20], the IC50 at KDR is 18 nM; in data set [2], 500 nM.

`COc1cc2ncnc(Nc3cccc(O)c3F)c2cc1OC` [Compound 14, 3-((6,7-Dimethoxyquinazolin-4-yl)amino)-2-fluorophenol] had an IC50 at KDR of 280 nM.

In general, hepatocyte CLint refers to the capacity of the preparation to metabolise the compound, expressed as a volume cleared per time. Broadly, the IC50 is the concentration at which inhibition is half-maximal. Broadly, the solubility is how much of the substance goes into solution per volume. The Papp is a coefficient for how fast a substance crosses the barrier. Higher therefore signals ready permeation.
